Assay results as given in ChEMBL document CHEMBL1137449, “A refined agonist pharmacophore for protease activated receptor 2” (Bioorg Med Chem Lett, 2007).
pEC50: −log10 of the molar value. Square brackets hold non-standard residues; d marks the D form. Peptide text beside a SMILES is read from it. * marks the point of attachment. X1 = CC[C@H](C)[C@H](N)C(=O)NC(=O)[C@H](Cc1ccc([N+](=O)[O-])cc1)N*; Phe(4-NO2) = N[C@@H](Cc1ccc([N+](=O)[O-])cc1)C(=O)O; Phe(4-F) = N[C@@H](Cc1ccc(F)cc1)C(=O)O; 1Nal = N[C@@H](Cc1cccc2ccccc12)C(=O)O; hTyr = N[C@@H](CCc1ccc(O)cc1)C(=O)O; hPhe = N[C@@H](CCc1ccccc1)C(=O)O; 3Pal = N[C@@H](Cc1cccnc1)C(=O)O; 4Pal = N[C@@H](Cc1ccncc1)C(=O)O; Cha = N[C@@H](CC1CCCCC1)C(=O)O; Nle = CCCC[C@H](N)C(=O)O; 2Furoyl = O=C(c1ccco1)*

Biological target: T1, Proteinase-activated receptor 2 (Homo sapiens, UniProt P55085)
T1 sequence (P55085 whole entry): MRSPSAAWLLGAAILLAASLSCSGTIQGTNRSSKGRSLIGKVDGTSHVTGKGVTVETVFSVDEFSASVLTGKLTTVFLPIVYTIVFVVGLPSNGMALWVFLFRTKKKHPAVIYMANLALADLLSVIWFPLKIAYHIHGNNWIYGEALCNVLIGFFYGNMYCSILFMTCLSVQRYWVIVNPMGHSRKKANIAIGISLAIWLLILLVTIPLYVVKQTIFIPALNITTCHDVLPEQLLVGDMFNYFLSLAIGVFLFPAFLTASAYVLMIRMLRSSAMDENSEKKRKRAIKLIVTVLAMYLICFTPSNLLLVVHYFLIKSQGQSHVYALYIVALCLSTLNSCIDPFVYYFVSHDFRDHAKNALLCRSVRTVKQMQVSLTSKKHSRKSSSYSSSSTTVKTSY
Test: Agonist activity at PAR2 expressed in human HT29 cells assessed as intracellular calcium release
Type: functional, cell-based, HT-29

SMILES	pEC50
CC[C@H](C)[C@H](N)C(=O)NC(=O)[C@H](Cc1ccc([N+](=O)[O-])cc1)NC(=O)[C@H](CCCNC(=N)N)NC(=O)CNC(=O)[C@@H](NC(=O)[C@H](CC(C)C)NC(=O)c1ccco1)[C@@H](C)CC (2Furoyl-LIGR-X1)	6.70
CC[C@H](C)[C@H](NC(=O)[C@H](CC(C)C)NC(=O)c1ccco1)C(=O)NCC(=O)N[C@@H](CCCNC(=N)N)C(=O)N[C@@H](Cc1ccc([N+](=O)[O-])cc1)C(N)=O (2Furoyl-LIGR[Phe(4-NO2)]-NH2)	6.77
CC[C@H](C)[C@H](NC(=O)[C@H](CC(C)C)NC(=O)[C@@H](N)CO)C(=O)NCC(=O)N[C@@H](CCCNC(=N)N)C(=O)N[C@@H](CC(C)C)C(N)=O (H-SLIGRL-NH2)	5.38
CC[C@H](C)[C@H](NC(=O)[C@H](CC(C)C)NC(=O)[C@H](CCCN=C(N)N)NC(=O)CNC(=O)[C@@H](NC(=O)[C@H](CC(C)C)NC(=O)[C@@H](N)CO)[C@@H](C)CC)C(N)=O (H-SLIGRLI-NH2)	6.15
CC[C@H](C)[C@H](NC(=O)[C@H](CC(C)C)NC(=O)[C@@H](N)CO)C(=O)NCC(=O)N[C@@H](CCCNC(=N)N)C(=O)N[C@@H](CC(C)C)C(=O)N[C@@H](CC(C)C)C(N)=O (H-SLIGRLL-NH2)	5.92
CC[C@H](C)[C@H](NC(=O)[C@H](CC(C)C)NC(=O)[C@@H](N)CO)C(=O)NCC(=O)N[C@@H](CCCNC(=N)N)C(=O)N[C@@H](CC(C)C)C(=O)N[C@@H](Cc1cccc2ccccc12)C(N)=O (H-SLIGRL[1Nal]-NH2)	5.96
CC[C@H](C)[C@H](NC(=O)[C@H](CC(C)C)NC(=O)[C@@H](N)CO)C(=O)NCC(=O)N[C@@H](CCCNC(=N)N)C(=O)N[C@@H](CC(C)C)C(=O)N[C@@H](CC1CCCCC1)C(N)=O (H-SLIGRL[Cha]-NH2)	5.44
CCCC[C@H](NC(=O)[C@H](CC(C)C)NC(=O)[C@H](CCCNC(=N)N)NC(=O)CNC(=O)[C@@H](NC(=O)[C@H](CC(C)C)NC(=O)[C@@H](N)CO)[C@@H](C)CC)C(N)=O (H-SLIGRL[Nle]-NH2)	5.92
CC[C@H](C)[C@H](NC(=O)[C@H](CC(C)C)NC(=O)[C@@H](N)CO)C(=O)NCC(=O)N[C@@H](CCCNC(=N)N)C(=O)N[C@@H](CC(C)C)C(=O)N[C@@H](CCc1ccc(O)cc1)C(N)=O (H-SLIGRL[hTyr]-NH2)	6.22

Continued, values first:

pEC50	SMILES
5.55	CC[C@H](C)[C@H](NC(=O)[C@H](COc1ccc([N+](=O)[O-])cc1)NC(=O)[C@H](CCCNC(=N)N)NC(=O)CNC(=O)[C@@H](NC(=O)[C@H](CC(C)C)NC(=O)[C@@H](N)CO)[C@@H](C)CC)C(N)=O
6.00	CC[C@H](C)[C@H](NC(=O)[C@H](Cc1ccccc1)NC(=O)[C@H](CCCNC(=N)N)NC(=O)CNC(=O)[C@@H](NC(=O)[C@H](CC(C)C)NC(=O)[C@@H](N)CO)[C@@H](C)CC)C(N)=O (H-SLIGRFI-NH2)
5.92	CC[C@H](C)[C@H](NC(=O)[C@H](CC(C)C)NC(=O)[C@@H](N)CO)C(=O)NCC(=O)N[C@@H](CCCNC(=N)N)C(=O)N[C@@H](CC(C)C)C(=O)N[C@@H](Cc1ccc(O)cc1)C(N)=O (H-SLIGRLY-NH2)
5.70	CC[C@H](C)[C@H](NC(=O)[C@H](CC(C)C)NC(=O)[C@@H](N)CO)C(=O)NCC(=O)N[C@@H](CCCNC(=N)N)C(=O)N[C@@H](CC(C)C)C(=O)N[C@@H](Cc1ccc(F)cc1)C(N)=O (H-SLIGRL[Phe(4-F)]-NH2)
6.00	CC[C@H](C)[C@H](NC(=O)[C@H](CC(C)C)NC(=O)[C@@H](N)CO)C(=O)NCC(=O)N[C@@H](CCCNC(=N)N)C(=O)N[C@@H](CC(C)C)C(=O)N[C@@H](CCc1ccccc1)C(N)=O (H-SLIGRL[hPhe]-NH2)
6.40	CC[C@H](C)[C@H](NC(=O)[C@H](Cc1ccc(O)cc1)NC(=O)[C@H](CCCN=C(N)N)NC(=O)CNC(=O)[C@@H](NC(=O)[C@H](CC(C)C)NC(=O)[C@@H](N)CO)[C@@H](C)CC)C(N)=O (H-SLIGRYI-NH2)
5.96	CC[C@H](C)[C@H](NC(=O)[C@H](Cc1cccnc1)NC(=O)[C@H](CCCNC(=N)N)NC(=O)CNC(=O)[C@@H](NC(=O)[C@H](CC(C)C)NC(=O)[C@@H](N)CO)[C@@H](C)CC)C(N)=O (H-SLIGR[3Pal]I-NH2)
5.72	CC[C@H](C)[C@H](NC(=O)[C@H](Cc1ccncc1)NC(=O)[C@H](CCCNC(=N)N)NC(=O)CNC(=O)[C@@H](NC(=O)[C@H](CC(C)C)NC(=O)[C@@H](N)CO)[C@@H](C)CC)C(N)=O (H-SLIGR[4Pal]I-NH2)
